Reference: PubChem BioAssay AID504664 (Sanford-Burnham Center for Chemical Genomics, 2011)
Active and inactive are the calls of the source.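 How the source made its calls: active means IC50 mean at or below 20 µM; inactive means the rest.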

System: 697 NF-kB-Luc cells, PMA/ionomycin, luciferase luminescence, 16 h
Experiment: NF-kB reporter inhibition in 697 B cells, SAR follow-up, T-cell antigen receptor NF-kB inhibitors, cell-based, luminescence, set 2 (AID 504664)

IC50	Compound
> 79 µM (inactive)	Cc1ccc(NC(=O)c2ccc([N+](=O)[O-])o2)cc1C
> 79 µM (inactive)	O=C(Nc1cccc2ncccc12)c1ccc([N+](=O)[O-])o1
> 79 µM (inactive)	CCCCC(=O)NC(c1ccccc1)c1ccc2cccnc2c1O (stereo not given)
> 79 µM (inactive)	CCCC(=O)NC(c1ccccc1Cl)c1ccc2cccnc2c1O (stereo not given)
> 79 µM (inactive)	COc1ccc(C)cc1NC(=O)c1ccc([N+](=O)[O-])o1
> 79 µM (inactive)	COc1ccccc1C(NC(C)=O)c1ccc2cccnc2c1O (stereo not given)
> 79 µM (inactive)	CCCCC(=O)NC(c1ccc(OC)cc1)c1ccc2cccnc2c1O (stereo not given)
> 79 µM (inactive)	CCC(=O)NC(c1ccc(N(C)C)cc1)c1ccc2cccnc2c1O (stereo not given)
> 79 µM (inactive)	COc1ccc(C(=O)Nc2ccc(NC(=O)c3cc4ccccc4o3)cc2)cc1Br
58.9 µM (inactive)	NS(=O)(=O)c1ccc(NC(=O)c2ccc([N+](=O)[O-])o2)cc1
> 79 µM (inactive)	O=C(Nc1ccc(-c2nc3ncccc3o2)cc1)c1ccc([N+](=O)[O-])o1
> 79 µM (inactive)	COc1ccc(C(=O)Nc2ccc(NC(=O)c3cc4ccccc4o3)cc2)cc1Cl
> 79 µM (inactive)	CCOc1ccc(-c2nc(CS(=O)(=O)CC(=O)NCc3ccc(F)cc3)c(C)o2)cc1
12.9 µM	Cc1cc(NC(=O)c2ccc3c(c2)OCCO3)ccc1NC(=O)c1cc2ccccc2o1
> 79 µM (inactive)	COc1ccc(C(NC(=O)Cc2ccccc2)c2ccc3cccnc3c2O)cc1OC (stereo not given)
> 79 µM (inactive)	COc1cc(NC(=O)c2ccc3c(c2)OCO3)ccc1NC(=O)c1cc2ccccc2o1
> 79 µM (inactive)	CCCC(=O)NC(c1ccc(C)cc1)c1ccc2cccnc2c1O (stereo not given)
> 79 µM (inactive)	N#Cc1cccc(NC(=O)c2ccc([N+](=O)[O-])o2)c1
> 79 µM (inactive)	COc1ccc(C(NC(=O)CCc2ccccc2)c2ccc3cccnc3c2O)cc1 (stereo not given)
> 79 µM (inactive)	CCOc1ccc(C(=O)Nc2ccc(NC(=O)c3cc4ccccc4o3)cc2)cc1[N+](=O)[O-]
> 79 µM (inactive)	CC(=O)NC(c1ccc(C(C)C)cc1)c1ccc2cccnc2c1O (stereo not given)
> 79 µM (inactive)	CC(C)CC(=O)NC(c1ccccc1)c1ccc2cccnc2c1O (stereo not given)

IC50	Compound
> 79 µM (inactive)	CC(=O)NC(c1ccc2ccccc2c1)c1ccc2cccnc2c1O (stereo not given)
> 79 µM (inactive)	Cc1ccc(C(NC(=O)C(C)C)c2ccc3cccnc3c2O)cc1 (stereo not given)
> 79 µM (inactive)	CCCC(=O)NC(c1ccccc1OC)c1ccc2cccnc2c1O (stereo not given)
> 79 µM (inactive)	COc1ccc(C(NC(=O)C(C)C)c2ccc3cccnc3c2O)cc1 (stereo not given)
> 79 µM (inactive)	CCCC(=O)NC(c1ccccc1)c1ccc2cccnc2c1O (stereo not given)
> 79 µM (inactive)	CCCOc1ccc(C(=O)Nc2ccc(NC(=O)c3cc4ccccc4o3)cc2)cc1
> 79 µM (inactive)	CC(=O)N1CCc2cc(NC(=O)c3ccc([N+](=O)[O-])o3)ccc21
> 79 µM (inactive)	CCC(=O)NC(c1ccc(C)cc1)c1ccc2cccnc2c1O (stereo not given)
> 79 µM (inactive)	CCCC(=O)NC(c1ccc(OC)cc1)c1ccc2cccnc2c1O (stereo not given)
> 79 µM (inactive)	COc1ccc(C(=O)Nc2ccc(NC(=O)c3cc4ccccc4o3)cc2)cc1[N+](=O)[O-]
> 79 µM (inactive)	O=C(Nc1ccc2c(c1)CCO2)c1ccc([N+](=O)[O-])o1
> 79 µM (inactive)	Cc1cc(NC(=O)c2ccc([N+](=O)[O-])o2)cc(-c2nc3ccccc3o2)c1O
> 79 µM (inactive)	Cc1cc(NC(=O)c2ccc([N+](=O)[O-])o2)ccc1NC(=O)c1ccco1
0.86 µM	COc1cc2nc(NC(=O)c3ccccc3)sc(=O)c2cc1OC
> 79 µM (inactive)	O=C(Nc1ccc2oc(-c3ccncc3)nc2c1)c1ccc([N+](=O)[O-])o1
> 79 µM (inactive)	COc1ccc(C(=O)Nc2ccc(NC(=O)c3cc4ccccc4o3)cc2)cc1OC
> 79 µM (inactive)	COc1ccc(C(NC(=O)CC(C)C)c2ccc3cccnc3c2O)cc1OC (stereo not given)
> 79 µM (inactive)	CCOc1ccc(NC(=O)c2ccc([N+](=O)[O-])o2)cc1
> 79 µM (inactive)	O=C(Nc1ccc2oc(-c3cccnc3)nc2c1)c1ccc([N+](=O)[O-])o1
> 79 µM (inactive)	Cc1cc(-c2nc3ncccc3o2)ccc1NC(=O)c1ccc([N+](=O)[O-])o1
31.9 µM (inactive)	Cc1cc(C)cc(NC(=O)c2ccc([N+](=O)[O-])o2)c1

The next lines start with the compound.

Compound	IC50
CCCCC(=O)NC(c1ccc(N(C)C)cc1)c1ccc2cccnc2c1O (stereo not given)	> 79 µM (inactive)
O=C(Nc1ccc(N2CCCC2)c(Cl)c1)c1ccc([N+](=O)[O-])o1	61.7 µM (inactive)
Cc1ccc(NC(=O)c2ccc([N+](=O)[O-])o2)cc1C(F)(F)F	> 79 µM (inactive)
CC(C)(C)NC(=O)CCc1nc(-c2ccc(C(C)(C)C)cc2)no1	2.5 µM
CCOc1ccc(-c2nc(CSCC(=O)NC3CC3)c(C)o2)cc1	0.21 µM
CCCCC(=O)NC(c1ccc(Cl)cc1)c1ccc2cccnc2c1O (stereo not given)	> 79 µM (inactive)
Cc1ccc2nsnc2c1NC(=O)c1ccc([N+](=O)[O-])o1	> 79 µM (inactive)
CC(C)(C)c1ccc(-c2noc(CCC(N)=O)n2)cc1	0.55 µM
COc1cc(-c2nc3n(n2)C(c2ccc(F)cc2)C2=C(CCCC2=O)N3)cc(OC)c1OC (stereo not given)	29 µM (inactive)
CCCC(=O)NC(c1ccc(Cl)cc1)c1ccc2cccnc2c1O (stereo not given)	> 79 µM (inactive)
Cc1cccc(NC(=O)c2ccc([N+](=O)[O-])o2)c1C	> 79 µM (inactive)
CNC(=O)CCc1nc(-c2ccc(C(C)(C)C)cc2)no1	0.03 µM
CN(C)C(=O)CCc1nc(-c2ccc(C(C)(C)C)cc2)no1	6.56 µM
CCN(CC)C(=O)CCc1nc(-c2ccc(C(C)(C)C)cc2)no1	60.1 µM (inactive)
CN1CCN(c2ccccc2NC(=O)c2ccc([N+](=O)[O-])o2)CC1	> 79 µM (inactive)
Cc1ccc(C)c(NC(=O)c2ccc([N+](=O)[O-])o2)c1	> 79 µM (inactive)

Compound	IC50
CCCCC(=O)NC(c1ccc(C(C)C)cc1)c1ccc2cccnc2c1O (stereo not given)	> 79 µM (inactive)
CCCCC(=O)NC(c1ccc(Cl)cc1Cl)c1ccc2cccnc2c1O (stereo not given)	> 79 µM (inactive)
CCCC(=O)NC(c1ccc(C(C)C)cc1)c1ccc2cccnc2c1O (stereo not given)	> 79 µM (inactive)
Cc1ccc(C(NC(=O)C2CCCCC2)c2ccc3cccnc3c2O)cc1 (stereo not given)	> 79 µM (inactive)
CCOc1ccc(-c2nc(CSCC(=O)NCc3ccco3)c(C)o2)cc1	0.29 µM
CCCCC(=O)NC(c1ccc(C)cc1)c1ccc2cccnc2c1O (stereo not given)	> 79 µM (inactive)
O=C(Nc1nc2c(Br)cc(Br)cc2c(=O)s1)c1ccco1	4.57 µM
CNC(=O)CCc1nc(-c2ccccc2)no1	> 79 µM (inactive)
CC(=O)N1CCN(c2ccc(NC(=O)c3ccc([N+](=O)[O-])o3)cc2Cl)CC1	62.3 µM (inactive)
CCNC(=O)CCc1nc(-c2ccc(C(C)(C)C)cc2)no1	< 0.16 µM
CCCCC(=O)NC(c1ccc(N(CC)CC)cc1)c1ccc2cccnc2c1O (stereo not given)	> 79 µM (inactive)
CC(C)c1ccc(C(NC(=O)C2CCCCC2)c2ccc3cccnc3c2O)cc1 (stereo not given)	> 79 µM (inactive)
CCCCNC(=O)CCc1nc(-c2ccc(C(C)(C)C)cc2)no1	14.6 µM
CC(C)c1ccc(C(NC(=O)C2CCCCC2)c2cc([N+](=O)[O-])c3cccnc3c2O)cc1 (stereo not given)	> 79 µM (inactive)
CCN1CCN(c2c(Cl)cccc2NC(=O)c2ccc([N+](=O)[O-])o2)CC1	43.7 µM (inactive)
CC(C)CC(=O)NC(c1ccc(C(C)C)cc1)c1ccc2cccnc2c1O (stereo not given)	> 79 µM (inactive)
